Legend:
DCAF15 = biological target: T1, DCAF15 (Homo sapiens, UniProt Q66K64, DEL276-383); test: DCAF15 Displacement Assay (displacement of probe PT7795, FRET); type: binding; conditions: competition with 300 nM PT7795 on DDA1-DDB1ΔB-DCAF15Δpro triplex, 18 hours incubation, FRET 665/615
T1 construct: made in house; host or cells: Sf9 (baculovirus, Bac-to-Bac)
Text: (§1) Proteins used for the assays were as follows: Human DDA1 (UniProt:Q9BW61), DDB1 (UniPro:Q16531), and DCAF15 (UniProt:Q66K64) coding sequences were cloned into pFastBac1 vectors and were co-expressed in Sf9 cells using Bac-to-Bac baculovirus expression system (Thermo Fisher Scientific). The expression construct for DCAF15 includes a N-terminal His6-tag to facilitate the purification. The atrophin-1 homology region of DCAF15 (amino acid residues 276-383) was excised (Apro, originally to facilitate crystallization). Triplex of DDA1-DDB1ΔB-DCAF15Apro, which has the BPB domain (aa 396 to 705) excised and replaced with a GNGNSG linker, was used in all the kinetic measurements because of the higher yield. R^1R^2 of RBM39 (aa 150 to 331; UniProt: Q14498) contained a C-terminal FLAG tag used in the DCAF15/RBM39 complex formation assay. DCAF15 Displacement Assay (Displacement FRET KD)
The previously described procedure was followed (See X. Du, et al., “Structural Basis and Kinetic Pathway of RBM39 Recruitment to DCAF15 by a Sulfonamide Molecular Glue E7820”, Structure, 27, 1625-1633.e3, 2019). Synthesis of the probe PT7795 is described in the article.
Binding of PT7795 to DDA1-DDB1ΔB-DCAF15Apro was measured by the FRET signal between europium-labeled anti-His antibody (AD0205, Perkin Elmer) that is associated with His-tagged DCAF15 and ALX647 moiety in PT7795. The concentration of PT7795 was varied from 2.3 nM to 1000 nM in 16 wells, each containing 25 mM HEPES pH7.5, 100 mM NaCl, 0.1 mg/ml BSA, 0.005% Tween 20, 0.5 mM TCEP, 4% DMSO, 0.5 nM europium-labeled anti-His antibody, and 10 nM triplex of DDA1-DDB1 DB-DCAF15 Apro. After equilibrating for 2-3 hours at 4° C., the plate was removed from the incubator, briefly spun, then read on a Spark 10 (Tecan) at the excitation/emission wavelength of 340 nm/615 nm and 340 nm/665 nm. To obtain Kd, the ratio of 665/615 readings was fitted to Equation 1, where F stands for the ratio of 665/615 […].
Binding of compounds in this disclosure to DCAF15 was measured in a competition by the displacement of PT7795. The concentration of PT7795 was kept at 300 nM while the concentration of a compound was varied from 0.01 to 100 μM. The incubation time was increased to 18 hours for enhanced signal to noise level. To obtain IC50, the ratio of 665/615 readings was fitted to Equation 2, where n is Hill slope.

[1] = biological target: T2, DCAF15 RBM39 ternary complex (Homo sapiens, UniProt Q14498+Q66K64, DEL276-383); test: DCAF15 RBM39 Ternary Complex Formation Assay; type: binding; conditions: apparent EC50 for compound-induced complex formation, 10 nM DCAF15 triplex, 50 nM RBM39 R1R2, FRET 665/615
T2 construct: RBM39 (aa 150 to 331; UniProt: Q14498); TEV cleavage site (pGEX4T3 vector); made in house; host or cells: Sf9 (baculovirus) for the triplex; E. coli for the RBM39 fragment according to b294
Text: as §1
His-tagged DDA1-DDB1ΔB-DCAFISΔpro triplex and RIR2 with a C-terminal FLAG were used in the assay and compound-induced complex formation was monitored through resonance transfer between europium-labeled anti-His antibody and APC-labeled anti-FLAG antibody (AD0059F, Perkin Elmer).

| SMILES | IC50 (DCAF15) | EC50 [1] |
| --- | --- | --- |
| CC(C)(C)OC(=O)NCCCCC(=O)N1CCC(CN2Cc3cc(Cl)c4c(Cl)c[nH]c4c3NS2(=O)=O)CC1 [Compound 8, tert-butyl (5-(4-((6,7-dichloro-2,2-dioxido-4,9-dihydro-[1,2,6]thiadiazino[4,3-g]indol-3(1H)-yl)methyl)piperidin-1-yl)-5-oxopentyl)carbamate] | 0.261 µM | 0.0045 µM |
| NCCCCC(=O)N1CCC(CN2Cc3cc(Cl)c4c(Cl)c[nH]c4c3NS2(=O)=O)CC1 [Compound 9, 5-amino-1-(4-((6,7-dichloro-2,2-dioxido-4,9-dihydro-[1,2,6]thiadiazino[4,3-g]indol-3(1H)-yl)methyl)piperidin-1-yl)pentan-1-one] | 0.244 µM | 0.0049 µM |
| CNC(=O)c1[nH]c2c3c(cc(Cl)c2c1Cl)CN(CC1CCCNC1)S(=O)(=O)N3 (stereo not drawn) [Compound 10, 6,7-dichloro-N-methyl-3-(piperidin-3-ylmethyl)-1,3,4,9-tetrahydro-[1,2,6]thiadiazino[4,3-g]indole-8-carboxamide 2,2-dioxide] | 2.09 µM | > 25 µM |
| CNC(=O)c1[nH]c2c3c(cc(Cl)c2c1Cl)CN(CC1CCCN(C(=O)OC(C)(C)C)C1)S(=O)(=O)N3 (stereo not drawn) [Compound 11, tert-butyl 3-((6,7-dichloro-8-(methylcarbamoyl)-2,2-dioxido-4,9-dihydro-[1,2,6]thiadiazino[4,3-g]indol-3(1H)-yl)methyl)piperidine-1-carboxylate] | 1.44 µM | > 25 µM |
| CNC(=O)c1[nH]c2c3c(cc(Cl)c2c1Cl)CN(CC1CCCN(C(C)=O)C1)S(=O)(=O)N3 (stereo not drawn) [Compound 12, 3-((1-acetylpiperidin-3-yl)methyl)-6,7-dichloro-N-methyl-1,3,4,9-tetrahydro-[1,2,6]thiadiazino[4,3-g]indole-8-carboxamide 2,2-dioxide] | 0.679 µM | > 25 µM |
| CC(=O)N1CCCC(CN2Cc3cc(Cl)c4c(Cl)c(CCCC(N)=O)[nH]c4c3NS2(=O)=O)C1 (stereo not drawn) [Compound 20, 4-(3-((1-acetylpiperidin-3-yl)methyl)-6,7-dichloro-2,2-dioxido-1,3,4,9-tetrahydro-[1,2,6]thiadiazino[4,3-g]indol-8-yl)butanamide] | 0.105 µM | > 25 µM |
| CC(C)(C)OC(=O)N1CCCC(CN2Cc3cc(Cl)c4c(Cl)c(CCCC(N)=O)[nH]c4c3NS2(=O)=O)C1 (stereo not drawn) [Compound 22, tert-butyl 3-((8-(4-amino-4-oxobutyl)-6,7-dichloro-2,2-dioxido-4,9-dihydro-[1,2,6]thiadiazino[4,3-g]indol-3(1H)-yl)methyl)piperidine-1-carboxylate] | 5.78 µM | > 25 µM |
| O=C(O)CCCc1[nH]c2c3c(cc(Cl)c2c1Cl)CN(CC1CCCNC1)S(=O)(=O)N3 (stereo not drawn) [Compound 23, 4-(6,7-dichloro-2,2-dioxido-3-(piperidin-3-ylmethyl)-1,3,4,9-tetrahydro-[1,2,6]thiadiazino[4,3-g]indol-8-yl)butanoic acid] | 0.277 µM | > 25 µM |
| COC(=O)CCCc1[nH]c2c3c(cc(Cl)c2c1Cl)CN(Cc1ccnc(O)c1)S(=O)(=O)N3 [Compound 24, methyl 4-(6,7-dichloro-3-((2-hydroxypyridin-4-yl)methyl)-2,2-dioxido-1,3,4,9-tetrahydro-[1,2,6]thiadiazino[4,3-g]indol-8-yl)butanoate] | 0.317 µM | > 25 µM |

Further lines, results first:

| IC50 (DCAF15) | EC50 [1] | SMILES |
| --- | --- | --- |
| 1.42 µM | 0.0127 µM | COCCOCCCN1Cc2cc(Cl)c3c(Cl)c[nH]c3c2NS1(=O)=O [Compound 1, 6,7-dichloro-3-(3-(2-methoxyethoxy)propyl)-1,3,4,9-tetrahydro-[1,2,6]thiadiazino[4,3-g]indole 2,2-dioxide] |
| 25 µM | 0.247 µM | COCCOCCOCCCN1Cc2cc(Cl)c3c(Cl)c[nH]c3c2NS1(=O)=O [Compound 2, 6,7-dichloro-3-(3-(2-(2-methoxyethoxy)ethoxy)propyl)-1,3,4,9-tetrahydro-[1,2,6]thiadiazino[4,3-g]indole 2,2-dioxide] |
| 2.5 µM | 0.0214 µM | COCCCCCOCCCN1Cc2cc(Cl)c3c(Cl)c[nH]c3c2NS1(=O)=O [Compound 3, 6,7-dichloro-3-(3-((5-methoxypentyl)oxy)propyl)-1,3,4,9-tetrahydro-[1,2,6]thiadiazino[4,3-g]indole 2,2-dioxide] |
| 0.2 µM | 0.0043 µM | COCCOCC(=O)N1CCC(CN2Cc3cc(Cl)c4c(Cl)c[nH]c4c3NS2(=O)=O)CC1 [Compound 4, 1-(4-((6,7-dichloro-2,2-dioxido-4,9-dihydro-[1,2,6]thiadiazino[4,3-g]indol-3(1H)-yl)methyl)piperidin-1-yl)-2-(2-methoxyethoxy)ethan-1-one] |
| 0.098 µM | 0.0078 µM | COCCOCC(=O)N1CCCC(CN2Cc3cc(Cl)c4c(Cl)c[nH]c4c3NS2(=O)=O)C1 (stereo not drawn) [Compound 5, 1-(3-((6,7-dichloro-2,2-dioxido-4,9-dihydro-[1,2,6]thiadiazino[4,3-g]indol-3(1H)-yl)methyl)piperidin-1-yl)-2-(2-methoxyethoxy)ethan-1-one] |
| 0.156 µM | 0.0043 µM | COCCCCC(=O)N1CCC(CN2Cc3cc(Cl)c4c(Cl)c[nH]c4c3NS2(=O)=O)CC1 [Compound 6, 1-(4-((6,7-dichloro-2,2-dioxido-4,9-dihydro-[1,2,6]thiadiazino[4,3-g]indol-3(1H)-yl)methyl)piperidin-1-yl)-5-methoxypentan-1-one] |
| 0.48 µM | 0.0106 µM | COCCCCC(=O)N1CCCC(CN2Cc3cc(Cl)c4c(Cl)c[nH]c4c3NS2(=O)=O)C1 (stereo not drawn) [Compound 7, 1-(3-((6,7-dichloro-2,2-dioxido-4,9-dihydro-[1,2,6]thiadiazino[4,3-g]indol-3(1H)-yl)methyl)piperidin-1-yl)-5-methoxypentan-1-one] |
| 1.3 µM | > 25 µM | COCCCN1Cc2cc(Cl)c3c(Cl)c(C(=O)OC)[nH]c3c2NS1(=O)=O [Compound 13, methyl 6,7-dichloro-3-(3-methoxypropyl)-1,3,4,9-tetrahydro-[1,2,6]thiadiazino[4,3-g]indole-8-carboxylate 2,2-dioxide] |
| 2.05 µM | 2.51 µM | CCOC(=O)c1[nH]c2c3c(cc(Cl)c2c1Cl)CN(CCCOC)S(=O)(=O)N3 [Compound 14, ethyl 6,7-dichloro-3-(3-methoxypropyl)-1,3,4,9-tetrahydro-[1,2,6]thiadiazino[4,3-g]indole-8-carboxylate 2,2-dioxide] |
| 1.28 µM | > 25 µM | CNC(=O)c1[nH]c2c3c(cc(Cl)c2c1Cl)CN(CCCOC)S(=O)(=O)N3 [Compound 15, 6,7-dichloro-3-(3-methoxypropyl)-N-methyl-1,3,4,9-tetrahydro-[1,2,6]thiadiazino[4,3-g]indole-8-carboxamide 2,2-dioxide] |
| 0.652 µM | > 25 µM | COCCCN1Cc2cc(Cl)c3c(Cl)c(CCCC(=O)O)[nH]c3c2NS1(=O)=O [Compound 18, 4-(6,7-dichloro-3-(3-methoxypropyl)-2,2-dioxido-1,3,4,9-tetrahydro-[1,2,6]thiadiazino[4,3-g]indol-8-yl)butanoic acid] |
| 0.824 µM | > 25 µM | COCCCN1Cc2cc(Cl)c3c(Cl)c(CCCC(N)=O)[nH]c3c2NS1(=O)=O [Compound 19, 4-(6,7-dichloro-3-(3-methoxypropyl)-2,2-dioxido-1,3,4,9-tetrahydro-[1,2,6]thiadiazino[4,3-g]indol-8-yl)butanamide] |

From patent US20240400583A1, “TRICYCLIC SULFAMIDES AND SULTAMS” (Merck Sharp & Dohme LLC, priority 2021, published 2024)
